Test system: advanced solid tumors in Japanese patients
Experiment: Objective tumor response (RECIST version 1.1)
Assay type: in vivo, human
Details: for Best objective response: Non-response, Not evaluable / Best objective response: Non-response, RECIST progression / Best objective response: Non-response, Stable disease ≥6 weeks / Best objective response: Complete response / Best objective response: Partial response: patients, count (%); for Best objective response: Complete response / Best objective response: Partial response: response confirmed after 4 weeks; for time to partial response after starting AZD5363: Akt1 (E17K) positive; for duration of partial response at data cutoff: data cutoff July 7, 2014
Excerpt: Objective tumor response assessments were based on Response Evaluation Criteria in Solid Tumors (RECIST) version 1.1.
Tumor samples were screened for mutations using a clinical sequencing platform consisting of an in-house cancer gene panel (National Cancer Center OncoPanel version 2) based on an Agilent Sure Select system and an Illumina MiSeq sequencer. The target regions to be captured were the exons of 90 targetable or actionable genes and the introns of 10 protein kinase genes. Samples with <10 % tumor cell content were excluded from the analysis.

[1] = breast cancer patient, 640 mg bid intermittent 2/5
[2] = ovarian cancer patient, 480 mg bid intermittent 4/3

SMILES: NC1(C(=O)N[C@@H](CCO)c2ccc(Cl)cc2)CCN(c2ncnc3[nH]ccc23)CC1 [AZD5363]
- Best objective response: Non-response, Not evaluable (80 mg bid continuous): 0 (0.0)
- Best objective response: Non-response, RECIST progression (80 mg bid continuous): 1 (33.3)
- Best objective response: Non-response, Stable disease ≥6 weeks (80 mg bid continuous): 2 (66.7)
- Best objective response: Complete response (80 mg bid continuous): 0 (0.0)
- Best objective response: Partial response (80 mg bid continuous): 0 (0.0)
- Best objective response: Non-response, Not evaluable (240 mg bid continuous): 1 (14.3)
- Best objective response: Non-response, RECIST progression (240 mg bid continuous): 5 (71.4)
- Best objective response: Non-response, Stable disease ≥6 weeks (240 mg bid continuous): 1 (14.3)
- Best objective response: Complete response (240 mg bid continuous): 0 (0.0)
- Best objective response: Partial response (240 mg bid continuous): 0 (0.0)
- Best objective response: Non-response, Not evaluable (320 mg bid continuous): 2 (66.7)
- Best objective response: Non-response, RECIST progression (320 mg bid continuous): 1 (33.3)
- Best objective response: Non-response, Stable disease ≥6 weeks (320 mg bid continuous): 0 (0.0)
- Best objective response: Complete response (320 mg bid continuous): 0 (0.0)
- Best objective response: Partial response (320 mg bid continuous): 0 (0.0)
- Best objective response: Non-response, Not evaluable (360 mg bid intermittent 4/3): 2 (25.0)
- Best objective response: Non-response, RECIST progression (360 mg bid intermittent 4/3): 3 (37.5)
- Best objective response: Non-response, Stable disease ≥6 weeks (360 mg bid intermittent 4/3): 3 (37.5)
- Best objective response: Complete response (360 mg bid intermittent 4/3): 0 (0.0)
- Best objective response: Partial response (360 mg bid intermittent 4/3): 0 (0.0)
- Best objective response: Non-response, Not evaluable (400 mg bid continuous): 1 (25.0)
- Best objective response: Non-response, RECIST progression (400 mg bid continuous): 3 (75.0)
- Best objective response: Non-response, Stable disease ≥6 weeks (400 mg bid continuous): 0 (0.0)
- Best objective response: Complete response (400 mg bid continuous): 0 (0.0)
- Best objective response: Partial response (400 mg bid continuous): 0 (0.0)
- Best objective response: Non-response, Not evaluable (480 mg bid intermittent 4/3): 0 (0.0)
- Best objective response: Non-response, RECIST progression (480 mg bid intermittent 4/3): 1 (16.7)
- Best objective response: Non-response, Stable disease ≥6 weeks (480 mg bid intermittent 4/3): 4 (66.7)
- Best objective response: Complete response (480 mg bid intermittent 4/3): 0 (0.0)
- Best objective response: Partial response (480 mg bid intermittent 4/3): 1 (16.7)
- Best objective response: Non-response, Not evaluable (640 mg bid intermittent 2/5): 1 (16.7)
- Best objective response: Non-response, RECIST progression (640 mg bid intermittent 2/5): 4 (66.7)
- Best objective response: Non-response, Stable disease ≥6 weeks (640 mg bid intermittent 2/5): 0 (0.0)
- Best objective response: Complete response (640 mg bid intermittent 2/5): 0 (0.0)
- Best objective response: Partial response (640 mg bid intermittent 2/5): 1 (16.7)
- Best objective response: Non-response, Not evaluable (Total): 7 (18.9)
- Best objective response: Non-response, RECIST progression (Total): 18 (48.6)
- Best objective response: Non-response, Stable disease ≥6 weeks (Total): 10 (27.0)
- Best objective response: Complete response (Total): 0 (0.0)
- Best objective response: Partial response (Total): 2 (5.4)
- patients with confirmed partial response (all cohorts, both Akt1 (E17K) mutation positive): two
- best response, decrease in the SLD of target lesions [1]: 60.8%
- day on which progression was confirmed [1]: 378 days
- time to partial response after starting AZD5363 [1]: 44 days
- patients with stable disease for 12 weeks or more (of the 10 patients with stable disease): Seven
- time partial response was maintained (one patient in the 480 mg bid 4/3 dosing cohort): > 2 years
- best response, decrease in the sum of the longest diameter (SLD) of target lesions [2]: 55.8%
- duration of response (ovarian cancer patient, 480 mg bid intermittent 4/3, as of September 2015, according to the investigator): 1177 days
- time to partial response after starting AZD5363 [2]: 79 days
- duration of partial response at data cutoff (patient in the 480 mg bid intermittent 4/3 cohort): 675 days
- duration of partial response at data cutoff (patient in the 640 mg bid intermittent 2/5 cohort): 127 days
- patients with stable disease (three on continuous dosing and seven on intermittent dosing): Ten
- patients with a complete response (tumor response analysis set): no patients
- patients with disease progression (tumor response analysis set, 37 patients): 48.6%
- response of PIK3CA mutation positive patients to AZD5363 treatment (two additional patients identified as PIK3CA mutation positive): did not respond

From publication PMC4819940 (Cancer Chemotherapy and Pharmacology, 2016)
